Test results from ChEMBL document CHEMBL4002591 (J Med Chem, 2017).

What was measured:
[1] = target: Poly [ADP-ribose] polymerase 1 (Homo sapiens, UniProt P09874); test: Inhibition of full length recombinant human N-terminal GST-tagged PARP1 expressed in Baculovirus infected Sf9 cells using TACS-Sapphire as substrate measured after 1 hr by colorimetric assay
[2] = target: Poly [ADP-ribose] polymerase 2 (Homo sapiens, UniProt Q9UGN5); test: Inhibition of recombinant human N-terminal GST-tagged PARP2 (2 to 583 residues) expressed in baculovirus infected Sf9 cells measured after 1 hr by chemiluminescence assay
[3] = target: T1, Poly [ADP-ribose] polymerase tankyrase-1 (Homo sapiens, UniProt O95271); test: Inhibition of recombinant human N-terminal GST-tagged TNKS1 (1001 to 1327 residues) expressed in baculovirus infected sf9 cells using TACS-Sapphire as substrate measured after 30 mins by colorimetric assay
T1 sequence (O95271 whole entry): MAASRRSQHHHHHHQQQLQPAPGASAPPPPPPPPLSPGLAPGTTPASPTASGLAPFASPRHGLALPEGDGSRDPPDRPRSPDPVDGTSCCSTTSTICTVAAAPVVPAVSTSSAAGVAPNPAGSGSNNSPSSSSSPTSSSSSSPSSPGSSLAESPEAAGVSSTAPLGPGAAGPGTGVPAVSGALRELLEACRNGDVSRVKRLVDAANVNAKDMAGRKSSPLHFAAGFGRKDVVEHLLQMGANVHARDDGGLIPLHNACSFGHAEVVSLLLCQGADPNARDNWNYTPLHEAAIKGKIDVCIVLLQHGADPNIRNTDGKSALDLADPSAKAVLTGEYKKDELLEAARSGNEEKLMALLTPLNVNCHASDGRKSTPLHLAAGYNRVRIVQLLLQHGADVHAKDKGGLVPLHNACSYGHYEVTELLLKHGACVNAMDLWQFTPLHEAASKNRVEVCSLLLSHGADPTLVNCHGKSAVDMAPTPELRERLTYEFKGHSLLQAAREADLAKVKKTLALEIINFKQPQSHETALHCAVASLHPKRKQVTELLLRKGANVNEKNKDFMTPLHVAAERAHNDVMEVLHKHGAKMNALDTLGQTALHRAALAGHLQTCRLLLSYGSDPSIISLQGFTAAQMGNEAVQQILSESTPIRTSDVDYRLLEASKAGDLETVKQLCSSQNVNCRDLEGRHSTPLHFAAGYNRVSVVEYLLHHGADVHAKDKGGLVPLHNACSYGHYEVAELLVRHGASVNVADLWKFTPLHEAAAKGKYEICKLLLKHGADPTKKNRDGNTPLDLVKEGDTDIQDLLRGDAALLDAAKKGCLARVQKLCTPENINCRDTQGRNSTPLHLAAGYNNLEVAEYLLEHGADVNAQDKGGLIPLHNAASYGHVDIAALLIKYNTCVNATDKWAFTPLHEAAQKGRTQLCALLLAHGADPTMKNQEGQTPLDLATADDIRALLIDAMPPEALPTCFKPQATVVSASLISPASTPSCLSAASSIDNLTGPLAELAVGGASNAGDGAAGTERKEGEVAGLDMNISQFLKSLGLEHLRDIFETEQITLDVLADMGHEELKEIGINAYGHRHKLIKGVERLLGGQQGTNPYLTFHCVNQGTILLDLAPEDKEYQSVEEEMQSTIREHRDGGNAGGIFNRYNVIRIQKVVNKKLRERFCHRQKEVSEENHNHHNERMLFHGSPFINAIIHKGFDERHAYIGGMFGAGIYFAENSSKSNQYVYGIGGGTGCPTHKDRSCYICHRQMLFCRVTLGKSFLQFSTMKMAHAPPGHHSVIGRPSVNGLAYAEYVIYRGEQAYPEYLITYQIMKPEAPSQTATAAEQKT

[4] = target: T2, Poly [ADP-ribose] polymerase tankyrase-2 (Homo sapiens, UniProt Q9H2K2); test: Inhibition of recombinant human N-terminal His-GST-tagged TNKS2 (849 to 1166 residues) expressed in baculovirus infected Sf9 cells using biotinylated NAD+ as substrate measured after 2 hrs
T2 sequence (Q9H2K2 whole entry): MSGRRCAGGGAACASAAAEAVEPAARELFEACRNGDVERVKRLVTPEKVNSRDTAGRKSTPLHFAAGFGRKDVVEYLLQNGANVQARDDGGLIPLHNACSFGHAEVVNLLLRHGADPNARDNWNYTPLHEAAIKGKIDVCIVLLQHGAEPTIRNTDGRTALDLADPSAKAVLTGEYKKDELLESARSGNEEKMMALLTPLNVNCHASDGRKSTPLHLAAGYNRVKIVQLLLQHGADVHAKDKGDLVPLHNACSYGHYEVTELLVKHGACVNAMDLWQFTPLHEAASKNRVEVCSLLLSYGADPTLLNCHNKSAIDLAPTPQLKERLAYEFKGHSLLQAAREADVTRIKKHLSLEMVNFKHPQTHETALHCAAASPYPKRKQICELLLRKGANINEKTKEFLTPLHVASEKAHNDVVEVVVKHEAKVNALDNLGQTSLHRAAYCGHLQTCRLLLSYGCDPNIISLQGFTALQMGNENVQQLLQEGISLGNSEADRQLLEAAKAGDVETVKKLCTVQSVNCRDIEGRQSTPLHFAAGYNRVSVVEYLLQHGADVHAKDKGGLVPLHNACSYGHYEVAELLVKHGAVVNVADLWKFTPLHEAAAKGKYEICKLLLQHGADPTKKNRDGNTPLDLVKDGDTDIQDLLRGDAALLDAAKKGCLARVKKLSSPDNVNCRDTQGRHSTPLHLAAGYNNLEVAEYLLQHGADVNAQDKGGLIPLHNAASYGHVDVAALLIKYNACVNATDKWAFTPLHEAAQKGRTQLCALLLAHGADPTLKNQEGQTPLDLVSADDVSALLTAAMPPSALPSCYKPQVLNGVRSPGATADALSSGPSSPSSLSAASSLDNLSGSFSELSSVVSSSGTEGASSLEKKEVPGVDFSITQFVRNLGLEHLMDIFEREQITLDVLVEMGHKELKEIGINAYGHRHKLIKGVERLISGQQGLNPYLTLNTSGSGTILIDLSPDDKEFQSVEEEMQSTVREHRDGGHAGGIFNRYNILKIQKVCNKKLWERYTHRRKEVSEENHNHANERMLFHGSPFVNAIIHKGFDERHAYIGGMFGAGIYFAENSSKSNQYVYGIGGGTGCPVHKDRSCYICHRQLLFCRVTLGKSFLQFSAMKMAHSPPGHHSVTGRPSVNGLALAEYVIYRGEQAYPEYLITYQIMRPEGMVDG

Chain of Poly [ADP-ribose] polymerase 1 (P09874 whole entry, the tested form may be a part): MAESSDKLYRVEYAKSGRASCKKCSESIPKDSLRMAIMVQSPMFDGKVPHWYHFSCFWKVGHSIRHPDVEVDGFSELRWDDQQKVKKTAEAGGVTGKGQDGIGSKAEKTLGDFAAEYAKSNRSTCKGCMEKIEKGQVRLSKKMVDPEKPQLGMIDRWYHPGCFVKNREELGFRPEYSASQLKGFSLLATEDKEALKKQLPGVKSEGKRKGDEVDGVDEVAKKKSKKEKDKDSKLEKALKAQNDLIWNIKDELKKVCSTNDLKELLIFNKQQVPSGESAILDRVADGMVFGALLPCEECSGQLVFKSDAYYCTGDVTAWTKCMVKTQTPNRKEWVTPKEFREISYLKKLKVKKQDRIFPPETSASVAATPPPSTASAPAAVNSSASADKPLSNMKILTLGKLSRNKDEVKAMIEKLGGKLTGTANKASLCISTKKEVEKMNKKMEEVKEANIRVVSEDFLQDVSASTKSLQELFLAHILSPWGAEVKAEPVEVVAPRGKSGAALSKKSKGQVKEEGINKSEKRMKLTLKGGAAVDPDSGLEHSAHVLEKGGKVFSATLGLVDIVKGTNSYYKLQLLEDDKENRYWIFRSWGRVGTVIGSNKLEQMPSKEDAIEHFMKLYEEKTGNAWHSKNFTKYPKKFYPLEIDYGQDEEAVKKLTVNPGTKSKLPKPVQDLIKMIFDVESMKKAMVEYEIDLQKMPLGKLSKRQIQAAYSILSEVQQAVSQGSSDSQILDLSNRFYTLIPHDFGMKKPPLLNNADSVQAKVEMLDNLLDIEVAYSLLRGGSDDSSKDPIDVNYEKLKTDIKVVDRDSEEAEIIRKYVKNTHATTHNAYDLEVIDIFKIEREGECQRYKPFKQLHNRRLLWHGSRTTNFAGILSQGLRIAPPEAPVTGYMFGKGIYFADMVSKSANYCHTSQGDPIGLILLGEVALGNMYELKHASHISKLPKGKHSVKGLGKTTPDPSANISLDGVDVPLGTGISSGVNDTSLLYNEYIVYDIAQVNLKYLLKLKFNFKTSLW
Chain of Poly [ADP-ribose] polymerase 2 (Q9UGN5 whole entry, the tested form may be a part): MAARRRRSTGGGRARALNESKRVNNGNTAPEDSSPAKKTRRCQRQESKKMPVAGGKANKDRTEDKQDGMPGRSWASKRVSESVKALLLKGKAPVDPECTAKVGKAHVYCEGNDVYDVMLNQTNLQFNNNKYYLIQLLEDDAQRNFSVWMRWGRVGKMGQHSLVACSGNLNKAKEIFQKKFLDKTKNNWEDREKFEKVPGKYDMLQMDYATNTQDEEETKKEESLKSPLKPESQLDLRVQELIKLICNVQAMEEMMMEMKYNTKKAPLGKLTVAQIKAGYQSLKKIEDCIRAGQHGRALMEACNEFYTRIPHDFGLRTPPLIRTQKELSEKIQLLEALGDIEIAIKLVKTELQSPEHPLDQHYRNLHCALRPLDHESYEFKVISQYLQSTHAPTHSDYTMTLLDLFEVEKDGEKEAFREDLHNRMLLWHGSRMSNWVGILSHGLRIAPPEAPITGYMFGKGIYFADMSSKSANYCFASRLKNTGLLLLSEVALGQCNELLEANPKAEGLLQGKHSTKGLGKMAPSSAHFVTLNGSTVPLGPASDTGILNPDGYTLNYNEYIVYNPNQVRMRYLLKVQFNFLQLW

| IC50 ([1]; read-out: IC50) | IC50 [2] | IC50 [3] | IC50 [4] | IC50 ([1]; read-out: pIC50 (converted)) | SMILES |
| --- | --- | --- | --- | --- | --- |
| 6.7 µM | 0.125 µM | > 100 µM | > 100 µM |  | O=C(O)CCc1nc(O)c2ccccc2n1 |
| > 100 µM | > 100 µM | 0.343 µM |  |  | O=C(Nc1cccc2cccnc12)c1ccc(N2C(=O)[C@@H]3[C@@H]4CC[C@@H](C4)[C@@H]3C2=O)cc1 |
| 1 µM | 0.145 µM | > 100 µM | > 100 µM | 6.61 µM | Cc1cccc2c(=O)[nH]c(CCC(=O)O)nc12 |
| > 100 µM |  | > 100 µM |  |  | Nc1ccc(C(=O)Nc2cccc3cccnc23)cc1 |
